For this assay, the target named is T1, DmOctβ1 receptor (Drosophila melanogaster, UniProt Q9VCZ3).
T1 construct: expressed in transfected cells; host or cells: flpTM cells (HEK293 flpIn, Invitrogen #750-07, carrying the CNGA2 variant)
T1 sequence (Q9VCZ3 1-508): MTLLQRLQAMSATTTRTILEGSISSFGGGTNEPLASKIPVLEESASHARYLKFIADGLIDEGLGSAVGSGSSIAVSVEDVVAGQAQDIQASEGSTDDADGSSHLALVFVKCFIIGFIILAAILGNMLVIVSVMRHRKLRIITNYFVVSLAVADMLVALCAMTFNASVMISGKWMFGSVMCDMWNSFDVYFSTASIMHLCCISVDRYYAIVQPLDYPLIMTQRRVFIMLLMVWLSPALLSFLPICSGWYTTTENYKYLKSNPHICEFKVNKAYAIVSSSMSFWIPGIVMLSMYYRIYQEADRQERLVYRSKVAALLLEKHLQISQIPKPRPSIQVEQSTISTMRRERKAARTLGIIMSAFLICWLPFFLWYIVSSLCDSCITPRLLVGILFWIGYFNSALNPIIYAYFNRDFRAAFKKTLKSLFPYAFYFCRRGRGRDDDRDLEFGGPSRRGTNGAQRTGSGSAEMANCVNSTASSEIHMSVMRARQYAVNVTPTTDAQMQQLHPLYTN
Kind of assay: Ca2+ fluorimetry in plate reader (96 MWP), flpTM-DmOctβ1 cells (cAMP-mediated Ca2+ influx via CNGA2). The format is cell-based. The protocol:
Both the DmOctα1B receptor- and DmOctβ1 receptor-expressing (=flpTM-DmOctβ1) cell lines were initially investigated via Ca^2+ fluorimetric measurements in a plate reader. The cells were seeded in 96 well plates and loaded with Fluo-4, enabling the detection of changes in [Ca^2+]i. The Fluo-4 was excited at 485 nm and the fluorescence emission was recorded at 510 nm. To overcome the cAMP degradation by cell-endogenous phosphodiesterases, the DmOctβ1-expressing cells were treated with 100 µM iso-butylmethylxanthine (IBMX). Prior to the ligand application, the basal fluorescence (F0) was recorded and the concentration–response curves were generated by plotting the changes in fluorescence ((Fmax − F0)/F0 = ΔF/F0) against the ligand concentrations. For a better comparison, the fluorescence intensities were normalized. The maximal change in fluorescence for each of the stimulation series was defined as 100%. The EC50 values were determined from a nonlinear regression plot (four parameters) using GraphPad Prism v5.04 for analysis and display.
In order to omit loading with the fluorescent dye, both the DmOctα1B-expressing cells and flpTM-DmOctβ1 cells were stably transfected with a construct encoding the cytosolic version of GCaMP3.0. As in the previous experiment with Fluo-4, the GCaMP3.0-expressing cell lines were seeded in 96 well plates and incubated with the same series of increasing octopamine concentrations. The GCaMP3.0 was excited at 485 nm and the fluorescence emission was recorded at 510 nm. The basal fluorescence (F0) was recorded before adding the octopamine concentration series. The fluorescence intensities were normalized to the maximal change in fluorescence, defined as 100%. The concentration–response curves were generated with GraphPad Prism v5.04. In Figure 1, the concentration–response curves obtained with Fluo-4 and GCaMP3.0 are depicted for both of the receptors. […]

Several values for one entry are separate records, joined by “and”; a condition that tells them apart may be missing. Identical values can stand only once. Like-named read-outs stand apart in the source and are kept apart here.

Regarding `NCC(O)c1ccc(O)cc1` (stereo not drawn) [octopamine], the EC50 (flpTM-DmOctβ1-GCaMP3.0 cells, 100 µM IBMX, given as logEC50 (negative), read-out: logEC50 ± SD (converted)) is 0.437 nM; the EC50 (flpTM-DmOctβ1-GCaMP3.0 cells, 100 µM IBMX, read-out: EC50) was 0.4 nM; the EC50 (flpTM-DmOctβ1 cells loaded with Fluo-4, 100 µM IBMX, read-out: EC50) was ~1.2 nM and 1.2 nM.

Source of the values: PMC9369311, “Examination of Intracellular GPCR-Mediated Signaling with High Temporal Resolution” (International Journal of Molecular Sciences, 2022).
